Source: the supplement of paper PMC11208160

Experiment: recombinant barcode read abundance after kanamycin selection (control-corrected) (log10(CPM+1)); higher = more efficient recombination; sequences stand for … in AGTGCAGAGAAAATCGGCCAGTTTTCTCTGCCTGCAGTCCGCATGCCGT…AGATTTATGCAGCGGACTGCCTTTCTCCCAAAGTGATAAACCGGACAGTATCATGGACCGGTTTTCCCGGTAATCCGTATTTGCAAGGTTGGTTTCACT; site = the 11-nt target
How it was run: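 A promoter, a target, a barcode and the first 104 bridge RNA bases under J23119 made up each oligo. Oligos were Gibson-cloned into a vector bearing the other 73 bp and a T7-inducible recombinase, then co-electroporated into E. coli with a donor plasmid and plated in duplicate on chloramphenicol/ampicillin LB agar (control) or chloramphenicol/ampicillin/kanamycin with 0.1 mM IPTG. Recombination efficiency is the averaged, control-corrected counts per million of recombinant-junction barcodes. Reported values are log10(CPM+1).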
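Further: IS621 recombinase and bridge RNA in Escherichia coli cells.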

Sequence	recombinant barcode read abundance (log10)
GTGGCGTCTTGGGTTCTAACCTGTTGCCT (site GTGGCGTCTAG)	1.79
GTGGCGTCTTGGGTTCTAACCTGTTGCCT (site TTGGCCTCTAG)	0.104
GTGGGCGCTTGGGTTCTAACCTGTTGCCT (site GTAGGCGCTAG)	0.973
GTGGGCGCTTGGGTTCTAACCTGTTGCCT (site GTCGGCGCTAG)	0.165
GTGGGCGCTTGGGTTCTAACCTGTTGCCT (site GTGGGCGCTAG)	1.33
GTGGGCGCTTGGGTTCTAACCTGTTGCCT (site GTTGGCGCTAG)	0.524
GTGGTAACTTGGGTTCTAACCTGTTGCCT (site GTGGTAACTAG)	0.647
GTGGTAACTTGGGTTCTAACCTGTTGCCT (site GTGGTACCTAG)	0.19
GTGGTAACTTGGGTTCTAACCTGTTGCCT (site GTGGTAGCTAG)	0.3
GTGGTAACTTGGGTTCTAACCTGTTGCCT (site GTGGTATCTAG)	0.0678
GTGTACTCTTGGGTTCTAACCTGTTGCTT (site GTGGACTCTTA)	0.0612
GTGTACTCTTGGGTTCTAACCTGTTGCTT (site GTGTACTCTAA)	1.35
GTGTATCCTTGGGTTCTAACCTGTTGCAT (site GTGTATCCTAT)	1.7
GTGTATCCTTGGGTTCTAACCTGTTGCAT (site GTGTCTCCTAT)	0.279
GTGTATCCTTGGGTTCTAACCTGTTGCAT (site GTGTGTCCTAT)	0.0301
GTGTATCCTTGGGTTCTAACCTGTTGCAT (site GTGTTTCCTAT)	0.0918
GTGTGAACTTGGGTTCTAACCTGTTGCCG (site GAGTTAACTCG)	0.0504
GTGTGAACTTGGGTTCTAACCTGTTGCCG (site GTGTGAACTCG)	0.992
GTGTTTGCTTGGGTTCTAACCTGTTGCCT (site GAGTTTGCTAG)	0.0456
GTGTTTGCTTGGGTTCTAACCTGTTGCCT (site GCGTTTGCTAG)	0.0586
GTGTTTGCTTGGGTTCTAACCTGTTGCCT (site GGGTTTGCTAG)	0.0616
GTGTTTGCTTGGGTTCTAACCTGTTGCCT (site GTGTTTGCTAG)	0.596

Sequence	recombinant barcode read abundance (log10)
GTTAGAACTTGGGTTCTAACCTGTTGCTT (site CCATTGTCTCG)	0.0117
GTTAGAACTTGGGTTCTAACCTGTTGCTT (site GTTAGAACTAA)	0.123
GTTCAAACTTGGGTTCTAACCTGTTGCAT (site ATTCAAACTAG)	0.245
GTTCAAACTTGGGTTCTAACCTGTTGCAT (site GTTCAAACTAT)	1.2
GTTCAGACTTGGGTTCTAACCTGTTGCCT (site GTACAGACTAG)	1.15
GTTCAGACTTGGGTTCTAACCTGTTGCCT (site GTCCAGACTAG)	0.948
GTTCAGACTTGGGTTCTAACCTGTTGCCT (site GTGCAGACTAG)	0.0632
GTTCAGACTTGGGTTCTAACCTGTTGCCT (site GTTCAGACTAG)	1.58
GTTCCCTCTTGGGTTCTAACCTGTTGCTT (site GCTCACTCTAA)	0.245
GTTCCCTCTTGGGTTCTAACCTGTTGCTT (site GTTCCCTCTAA)	1.9
GTTCGGACTTGGGTTCTAACCTGTTGCGG (site GATCGGACTCC)	0.634
GTTCGGACTTGGGTTCTAACCTGTTGCGG (site GTTCGGACTCC)	2.69
GTTGCGGCTTGGGTTCTAACCTGTTGCCT (site GTTACGGCTAG)	0.44
GTTGCGGCTTGGGTTCTAACCTGTTGCCT (site GTTCCGGCTAG)	0.0471
GTTGCGGCTTGGGTTCTAACCTGTTGCCT (site GTTGCGGCTAG)	0.898
GTTGCGGCTTGGGTTCTAACCTGTTGCCT (site GTTTCGGCTAG)	0.34
GTTGGAGCTTGGGTTCTAACCTGTTGCAG (site GTTGGAGCTCT)	2.24
GTTGGAGCTTGGGTTCTAACCTGTTGCAG (site TATGGAGCTCT)	0.146
GTTGGAGCTTGGGTTCTAACCTGTTGCCT (site GTTAGAGCTAG)	1.97
GTTGGAGCTTGGGTTCTAACCTGTTGCCT (site GTTCGAGCTAG)	0.487
GTTGGAGCTTGGGTTCTAACCTGTTGCCT (site GTTGGAGCTAG)	2.35
GTTGGAGCTTGGGTTCTAACCTGTTGCCT (site GTTTGAGCTAG)	0.304

Sequence	recombinant barcode read abundance (log10)
GTTTAGTCTTGGGTTCTAACCTGTTGCCT (site GTTTAATCTAG)	0.159
GTTTAGTCTTGGGTTCTAACCTGTTGCCT (site GTTTAGTCTAG)	1.01
GTTTATACTTGGGTTCTAACCTGTTGCGT (site GATGATACTAC)	0.0203
GTTTATACTTGGGTTCTAACCTGTTGCGT (site GTTTATACTAC)	0.749
GTTTCAACTTGGGTTCTAACCTGTTGCCA (site CAACACCCTAT)	0.0582
GTTTCAACTTGGGTTCTAACCTGTTGCCA (site GTTTCAACTTG)	0.061
GTTTCAACTTGGGTTCTAACCTGTTGCGT (site AAGAACTCTCG)	0.18
GTTTCAACTTGGGTTCTAACCTGTTGCGT (site GTTTCAACTAC)	0.729
GTTTCCTCTTGGGTTCTAACCTGTTGCCG (site GGATCCTCTCG)	0.251
GTTTCCTCTTGGGTTCTAACCTGTTGCCG (site GTTTCCTCTCG)	0.78
GTTTGACCTTGGGTTCTAACCTGTTGCTT (site GTTTGACCTAA)	0.532
GTTTGACCTTGGGTTCTAACCTGTTGCTT (site GTTTGCCCTAA)	0.229
GTTTGACCTTGGGTTCTAACCTGTTGCTT (site GTTTGGCCTAA)	0.171
GTTTGACCTTGGGTTCTAACCTGTTGCTT (site GTTTGTCCTAA)	0.0874
GTTTGGACTTGGGTTCTAACCTGTTGCTA (site GTTTGGACTCA)	0.178
GTTTGGACTTGGGTTCTAACCTGTTGCTA (site GTTTGGACTTA)	0.904
GTTTGGTCTTGGGTTCTAACCTGTTGCCT (site GTTTGATCTAG)	0.285
GTTTGGTCTTGGGTTCTAACCTGTTGCCT (site GTTTGCTCTAG)	0.0727
GTTTGGTCTTGGGTTCTAACCTGTTGCCT (site GTTTGGTCTAG)	0.405
GTTTGGTCTTGGGTTCTAACCTGTTGCCT (site GTTTGTTCTAG)	0.0972
GTTTGTTCTTGGGTTCTAACCTGTTGCCT (site GTTTGATCTAG)	0.0239
GTTTGTTCTTGGGTTCTAACCTGTTGCCT (site GTTTGCTCTAG)	0.0623

Sequence	recombinant barcode read abundance (log10)
GTTTGTTCTTGGGTTCTAACCTGTTGCCT (site GTTTGGTCTAG)	0.237
GTTTGTTCTTGGGTTCTAACCTGTTGCCT (site GTTTGTTCTAG)	0.254
TAAACAGCTTGGGTTCTAACCTGTTGCCT (site TAAACAGCTAG)	0.0976
TAAACAGCTTGGGTTCTAACCTGTTGCCT (site TACACAGCTAG)	0.00929
TAAACAGCTTGGGTTCTAACCTGTTGCCT (site TAGACAGCTAG)	0.171
TAAACAGCTTGGGTTCTAACCTGTTGCCT (site TATACAGCTAG)	0.0779
TAAAGAGCTTGGGTTCTAACCTGTTGCGG (site TAAAGAGCTCC)	1.57
TAAAGAGCTTGGGTTCTAACCTGTTGCGG (site TACAGAGCTCC)	0.153
TAAAGAGCTTGGGTTCTAACCTGTTGCGG (site TAGAGAGCTCC)	0.109
TAAAGAGCTTGGGTTCTAACCTGTTGCGG (site TATAGAGCTCC)	0.236
TAACCCACTTGGGTTCTAACCTGTTGCCT (site TAACCCACTAG)	1.1
TAACCCACTTGGGTTCTAACCTGTTGCCT (site TTACGCACTAG)	0.334
TAACCTACTTGGGTTCTAACCTGTTGCAT (site TAACATACTAT)	0.0358
TAACCTACTTGGGTTCTAACCTGTTGCAT (site TAACCTACTAT)	0.802
TAACCTACTTGGGTTCTAACCTGTTGCAT (site TAACGTACTAT)	0.169
TAACCTACTTGGGTTCTAACCTGTTGCAT (site TAACTTACTAT)	0.0519
TAACGATCTTGGGTTCTAACCTGTTGCAT (site TAACGATCTAT)	0.497
TAACGATCTTGGGTTCTAACCTGTTGCAT (site TAACGGTCTAA)	0.0405
TAACGGTCTTGGGTTCTAACCTGTTGCTT (site TAACGATCTAT)	0.44
TAACGGTCTTGGGTTCTAACCTGTTGCTT (site TAACGGTCTAA)	1.09
